Key:
Format in all cases: in vivo, human
[1] = test system: women with interstitial cystitis; assay: 19 patient study of women with interstitial cystitis, intravesical instillation
Protocol: A 19 patient study of women with interstitial cystitis was conducted for four weeks. Three of the patients were diagnosed as being urinary incontinent. The diagnosis of IC was considered as being mild to severe. Powdered alpha 1-antitrypsin (40 mg) was dissolved in 40 ml of saline solution. The solutions were instilled into the bladder for 20 minutes weekly for four weeks. Cystoscopy was carried out during and after filling the bladder for one minute at a pressure of 80 cm of water under spinal and general anesthesia. Bladder biopsies were carried out during cystoscopy. 24-hour collection for measurement of creatine, methylhistamine and tryptase were taken.
In lieu of the recombinant or natural alpha 1-antitrypsin, the conjugate with PEG may be used.

[2] = test system: patient with rheumatoid arthritis; assay: DMSO solution administered to arthritic knee of a patient with rheumatoid arthritis; conditions: 5 percent solution in DMSO, topical on arthritic knee; after one week of treatment
Protocol: A 5 percent solution of alpha 1-antitrypsin was prepared with DMSO. A patient with rheumatoid arthritis administered the composition to an arthritic knee.

[3] = test system: patient having scleroderma of the finger; assay: salve used daily on a patient having scleroderma of the finger
Protocol: A salve comprising 1% alpha 1-antitrypsin was prepared with Aquaphor® and 1% water. The salve was used daily on a patient having scleroderma of the finger. The finger was bent and constricted. The skin around the finger was hardened. After a daily application for one month the skin was softer, the finger was more flexible and the bending was less severe.

[4] = 40 mg in 40 ml saline instilled into the bladder for 20 minutes weekly for four weeks, weekly studies
[5] = salve, 1% alpha 1-antitrypsin with Aquaphor and 1% water, daily application for one month

alpha 1-antitrypsin
creatine, 24-hour collection [1, 4]: decrease | methylhistamine, 24-hour collection [1, 4]: decrease | tryptase, 24-hour collection [1, 4]: decrease | lesions by cystoscopy ([1]; after two weeks of weekly instillation): substantial decrease in lesions | continence of the incontinent patients ([1]; after two weeks of weekly instillation, three urinary incontinent patients): continent | knee flexibility [2]: greater flexibility | knee pain [2]: free of pain | knee swelling [2]: substantial reduction in swelling | bending of the finger [3, 5]: less severe | flexibility of the finger [3, 5]: more flexible | skin around the finger [3, 5]: softer | finger position after the treatment was stopped ([3]; within six months after stopping the 1% salve): returned to the bent position

Source: US6566331B1, “Treatment of collagen related diseases” (Alphamed Pharmaceutical Corp, priority 1999, dated 2003)
